Experimental data: ChEMBL document CHEMBL5154647, “Discovery of seneciobipyrrolidine derivatives for the amelioration of glucose homeostasis disorders through 4E-BP1/Akt/AMPK signaling activation” (Eur J Med Chem, 2022)

How the values were obtained:
Type in all cases: functional
L6 [1] = experiment: Induction of glucose uptake in rat L6 myoblasts at 20 uM measured after 2 hrs by liquid scintillation counter
L6 [2] = experiment: Induction of glucose uptake in rat L6 myoblasts assessed as 2-DG concentration at 25 uM preincubated for 3 hrs and in presence of 2-deoxyglucose measured after 1 hrs by DNTB reagent based colorimetric assay; conditions: time 4 hrs
L6 [3] = experiment: Induction of glucose uptake in rat L6 myoblasts at 3 uM measured after 2 hrs by liquid scintillation counter

Work on `COc1ccc2c(c1)[C@H]1[C@H](CCN1C(=O)Cc1ccc(Cl)cc1)[C@H]1CCCN21` (racemic) yielded an Activity (L6 [1]) of 98.1% and an Activity (L6 [2]) of 33.1 pmol/µL.
With `COc1ccc2c(c1)[C@H]1[C@H](CCN1Cc1ccc(C)cc1)CN2C` (racemic) the Activity (L6 [1]) was 80.6%.
`Cc1ccc(CN2CC[C@@H]3[C@H]4CCCN4c4ccccc4[C@@H]32)cc1` (racemic) was tested, and the Activity (L6 [1]) was 155.4%.
`COc1ccc2c(c1)[C@H]1[C@H](CCN1C(=O)c1ccc(O)cc1)[C@H]1CCCN21` (racemic) showed an Activity (L6 [1]) of 86.7%.
Compound `COc1ccc(N2CC[C@@H]3[C@@H]4CCCN4c4ccc(OC)cc4[C@@H]32)cc1` (racemic) has an Activity (L6 [1]) of 46.2%.
With `COc1cc2c(cc1OC)N1CCC[C@@H]1[C@H]1CCN(Cc3ccc(C)cc3)[C@@H]21` (racemic) the Activity (L6 [1]) was 34.2%.
Work on `COc1ccc2c(c1)[C@H]1[C@H](CCN1CCc1ccccc1)[C@H]1CCCN21` (racemic) yielded an Activity (L6 [1]) of 55.9% and an Activity (L6 [2]) of 23.4 pmol/µL.
For `Cc1cccc(N2CC[C@@H]3[C@H]4CCCN4c4cc(C)ccc4[C@@H]32)c1` (racemic), the Activity (L6 [1]) was 76.4%.
In the case of `Cc1ccc(CN2CC[C@@H]3[C@H]4CCCN4c4ccc(C)cc4[C@@H]32)cc1` (racemic), the Activity (L6 [1]) is reported as 149.2% and the Activity (L6 [2]) is reported as 59.6 pmol/µL.
For `COc1cccc(N2CC[C@@H]3[C@H]4CCCN4c4cc(OC)ccc4[C@@H]32)c1` (racemic), the Activity (L6 [1]) was 22.4%.
`COc1ccc(N2CC[C@@H]3[C@H]4CCCN4c4ccc(OC)cc4[C@@H]32)cc1` (racemic) gave an Activity (L6 [1]) of 142.6%.
`COc1ccc2c(c1)[C@H]1[C@H](CCN1CCc1ccc(C)cc1)[C@H]1CCCN21` (racemic) showed an Activity (L6 [1]) of 86.3%.
`COc1ccccc1N1CC[C@@H]2[C@H]3CCCN3c3c(OC)cccc3[C@@H]21` (racemic) gave an Activity (L6 [1]) of 109.5%.
Compound `COc1cc(C[C@H]2C(=O)OC[C@@H]2Cc2ccc(OC)c(OC)c2)ccc1O` [ARCTIGENIN] has an Activity (L6 [3]) of 146% and an Activity (L6 [2]) of 23.5 pmol/µL.
